# Peptide text beside a SMILES is read from it. * marks the point of attachment. Cbz = O=C(OCc1ccccc1)*; CH2F = FC*
# What was measured:
# [1] = tested on: A549 human lung cancer cells; test: Flow cytometry analysis of apoptosis (propidium iodide); format: cell-based; conditions: for percentage of apoptosis: 48 hrs
# Method: (§1) Apoptosis of cells was measured by propidium iodide staining and FACS analysis. Cells were harvested, pelleted by centrifugation and resuspended in phosphate-buffered saline containing 50 μg/ml propidium iodide, 0.1% Triton X-100, and 0.1% sodium citrate and vortexed prior to FACS analysis (Becton-Dickenson FACScan, Mountain View, Calif.; FL-3 channel).
# [2] = tested on: H460 human lung cancer cells; test: as above; format: cell-based; conditions: for percentage of apoptosis: 48 hrs
# Method: as §1
# [3] = tested on: T47D cells; test: Annexin V apoptosis assay; format: cell-based, human; conditions: T47D cells treated with Ad-mda7 2000 vp/cell
# Method: Apoptosis was measured by TUNEL and Annexin V assays. […] Cell viability was determined by trypan-blue exclusion assay.
# [4] = cited from earlier work; for time of peak plasma levels after an oral dose / delay of plasma levels with a high fat meal: in vivo
# [5] = tested on: STAT3; test: Phospho-STAT3 immunofluorescence assay; format: cell-based, human; conditions: MDA-MB231 and MDA-MB453 cells
# Method: Cells growing in chamber slides were treated with human IL-24 protein in various concentrations (0-20 ng/ml) for 30 min. Cells were fixed with ethanol:acetic acid (9.5:0.5) and then stained with phospho-Stat3 primary antibody and FITC-labeled secondary antibody. The slides were analyzed using a Nikon fluorescence microscope.
# [6] = tested on: MDA-MB453 cells; test: Cell viability by trypan blue exclusion assay; format: cell-based, human; conditions: for cell death (cytotoxicity) by cytokine protein: 30 ng/ml, 96 h
# Method: (§2) MDA-MB231 and MDA-MB453 breast cancer lines were obtained from the America Type Culture Collection (ATCC, Manassas, Va.) and were maintained in DMEM (Hyclone, Inc., Logan, Utah) supplemented with 10% fetal bovine serum (Life Technologies, Inc.), 100 units/ml penicillin, 100 μg/ml streptomycin, 2 mM L-glutamine, and HEPES buffer (Life Technologies, Inc., Grand Island, N.Y.). The cells were screened routinely to verify lack of mycoplasma contamination and were used in the log phase of growth. […] Rabbit phospho-Stat3 (Tyr705) antibody was purchased from Cell Signaling Technology Inc. (Beverly, Mass.), β-Actin monoclonal antibody and terminal deoxynucleotidyl transferase-mediated dUTP-biotin nick-end labeling (TUNEL) kits were purchased from Oncogene Research Products (San Diego, Calif.), and all other primary and secondary antibodies were purchased from Santa Cruz Biotechnology (Santa Cruz, Calif.). Cell viability was analyzed by trypan blue exclusion assay. Cells were trypsinized and an aliquot suspended 1:1 volume with 0.4% trypan blue.
# (§3) Full-length mda-7 cDNA was cloned into pCEP4 FLAG vector (Invitrogen, San Diego, Calif.) containing the CMV promoter. The plasmid was transfected into HEK 293 cells, and stable sub-clones were isolated using hygromycin (0.4 μg/ml).
# (§4) The mda-7 gene was linked to an internal CMV-IE promoter, followed by an SV40 polyadenylation sequence. The same adenoviral vector containing the sequence for expression of luciferase (Ad-luc) was used as control virus. Cells were plated 1 day before infection.
# [7] = tested on: MDA-MB231 cells; test: Cell viability by trypan blue exclusion assay; format: cell-based, human; conditions: for cell death (cytotoxicity) by cytokine protein: 30 ng/ml, 96 h
# Method: as §2, §3, §4
# [8] = 48 h, two doses of 17AAG, combination compared with Ad-luc and 17AAG
# [9] = 30 ng/ml IL-24 with IL-10 0-300 ng/ml
molecule,measurement,setting,value
"C=CCNC1=C2C[C@@H](C)C[C@H](OC)[C@H](O)[C@@H](C)/C=C(\C)[C@H](OC(N)=O)[C@@H](OC)/C=C\C=C(/C)C(=O)NC(=CC1=O)C2=O [17AAG, 17-allyl-aminogeldanamycin]",cell death / apoptosis with 17AAG,[1]; [8],resulted in cell death
same,cell death / apoptosis with 17AAG,[2]; [8],resulted in cell death
"COC1=C2C[C@@H](C)C[C@H](OC)[C@H](O)[C@@H](C)/C=C(\C)[C@H](OC(N)=O)[C@@H](OC)/C=C\C=C(/C)C(=O)NC(=CC1=O)C2=O [GA, Geldanamycin]",percentage of apoptosis,[1]; GA 50 nm,6.3%
same,percentage of apoptosis,[1]; GA 150 nm,23.6%
same,percentage of apoptosis,[2]; GA 50 nm,5.7%
same,percentage of apoptosis,[2]; GA 150 nm,21%
COC(=O)C[C@H](NC(=O)[C@H](C)NC(=O)[C@@H](NC(=O)OCc1ccccc1)C(C)C)C(=O)CF [ZVAD] (Cbz-Val-Ala-Asp(OMe)-CH2F),reduction of Ad-mda7 induced apoptosis,[3],40%
"CS(=O)(=O)c1ccc(C2=C(c3ccccc3)C(=O)OC2)cc1 [rofecoxib, 4-[4-(methylsulfonyl)phenyl]-3-phenyl-2-(5H)furanone]",time of peak plasma levels after an oral dose,[4],2 to 3 h
same,delay of plasma levels with a high fat meal,[4],1 to 2 h
"Cc1onc(-c2ccccc2)c1-c1ccc(S(N)(=O)=O)cc1 [valdecoxib, 4-(5-methyl-3-phenyl-4-isoxazolyl)benzenesulfonamide]",active metabolite concentration in human plasma relative to parent,[4]; human plasma,about 10%
same,time of peak plasma levels after an oral dose,[4],about 3 hours
same,delay of plasma levels with a high fat meal,[4],1 to 2 h
IL-10: recombinant IL-10,STAT3 activation (phospho-STAT3),[5],able to activate STAT3
same,effect on IL-24-protein-induced killing,[6]; [9],significantly inhibited IL-24-protein-induced killing in a dose-dependent manner
same,cell death (cytotoxicity) by cytokine protein,[6],none of these induced cell death above background levels
same,effect on IL-24-protein-induced killing,[7]; [9],significantly inhibited IL-24-protein-induced killing in a dose-dependent manner
same,cell death (cytotoxicity) by cytokine protein,[7],none of these induced cell death above background levels
IL-22: IL-10 family cytokine,cell death (cytotoxicity) by cytokine protein,[6],none of these induced cell death above background levels
same,cell death (cytotoxicity) by cytokine protein,[7],none of these induced cell death above background levels
"IL-19: IL-10 family cytokine (protein, UniProt Q9UHD0 25-177, looked up) Interleukin-19: LRRCLISTDMHHIEESFQEIKRAIQAKDTFPNVTILSTLETLQIIKPLDVCCVTKNLLAFYVDRVFKDHQEPNPKILRKISSIANSFLYMQKTLRQCQEQRQCHCRQEATNATRVIHDNYDQLEVHAAAIKSLGELDVFLAWINKNHEVMFSA",cell death (cytotoxicity) by cytokine protein,[6],none of these induced cell death above background levels
same,cell death (cytotoxicity) by cytokine protein,[7],none of these induced cell death above background levels
IL-24: purified human IL-24 (MDA-7) protein from 293-IL24 cell supernatant (protein) QEFHFGPCQVKGVVPQKLWEAFWAVKDTMQAQDNITSARLLQQEVLQNVSDAESCYLVHTLLEFYLKTVFKNYHNRTVEVRTLKSFSTLANNFVLIVSQLQPSQENEMFSIRDSAHRRFLLFRRAFKQLDVEAALTKALGEVDILLTWMQKFYKL,STAT3 activation (phospho-STAT3),[5],able to activate STAT3
same,cell death (cytotoxicity) by cytokine protein,[6],induction of significant cell death
same,cell death (cytotoxicity) by cytokine protein,[7],induction of significant cell death

# — patent US20070009484A1, “Compositions and methods involving MDA-7 for the treatment of cancer” (Board of Regents, The University of Texas System, priority 2005, published 2007)
